In patent US4024139A, “2,3,4,4A-Tetrahydro-10H-1,2-oxazino[3,2-b](1,3)benzoxazin-10-ones” (Carter-Wallace, Inc., priority 1972, dated 1977):

Tested on: hind paw edema induced by carrageenin in the rat
Assay: hind paw edema induced by carrageenin in the rat (anti-inflammatory activity, oral)
Format: in vivo, rat (male, Sprague-Dawley)
Conditions: oral intubation 1 h before carrageenin, foot volume 3 h later, ED50 = dose in which edema formation is inhibited by 25 percent or more in 50 percent of the rats vs. mean of controls
Description: The procedure described below (Winters et al, Proc. Soc., Exp. Biol. Med., 111, 544, 1962) was used to establish the effectiveness of these compounds in the hind paw edema induced by carrageenin in the rat.
Male rats of the Sprague-Dawley strain (Charles River Laboratories) weighing 100 ± 20 grams were used for this study. Six animals were used for each drug dose. The drug was suspended in 1 percent aqueous solution of gum acacia, and each rat received 10 ml/kg of the appropriate concentration of drug suspension by oral intubation; controls were given a similar volume of the vehicle. One hour later, edema in the right hind paw was induced by the subplantar injection of 0.05 ml. of 1 percent calcium carrageenin dissolved in 0.15N sodium chloride. The volume of the foot was determined immediately and again 3 hours later. The difference was recorded as edema volume. Foot volume was measured by immersion of the foot in water at the level of the lateral malleolus, and determining the volume of water displaced by the foot. The ED50 may be defined as the dose in which edema formation is inhibited by 25 percent or more in 50 percent of the rats when compared to the mean value of the controls.

Row | SMILES | ED50 [mg/kg]
1 | O=C1c2cc(Cl)ccc2OC2CCCON12 (stereo not drawn) [Example 1, 8-chloro-2,3,4,4a-tetrahydro-10H-1,2-oxazino (3,2-b)(1,3)benzoxazin-10-one] | 100 ± 27
2 | O=C1c2ccccc2OC2CCCON12 (stereo not drawn) [Example 2, 2,3,4,4a-tetrahydro-10H-1,2-oxazino(3,2-b) (1,3)benzoxazin-10-one] | 65 ± 22
3 | Cc1ccc2c(c1)C(=O)N1OCCCC1O2 (stereo not drawn) [Example 3, 8-methyl-2,3,4,4a-tetrahydro-10H-1,2oxazino (3,2-b)(1,3)benzoxazine-10-one] | > 300
4 | CC1CCC2Oc3ccc(Cl)cc3C(=O)N2O1 (stereo not drawn) [Example 4, 8-chloro-2-methyl-2,3,4,4a-tetrahydro-10H-1,2-oxazino(3,2-b)(1,3)benzoxazin-10-one] | 270 ± 185
5 | CC1CON2C(=O)c3cc(Cl)ccc3OC2C1 (stereo not drawn) [Example 5, 8-chloro-3-methyl-2,3,4,4a-tetrahydro-10H-1,2-oxazino(3,2-b)(1,3)benzoxazin-10-one] | 160 ± 73
6 | CC1CCON2C(=O)c3cc(Cl)ccc3OC12 (stereo not drawn) [Example 6, 8-chloro-4-methyl-2,3,4,4a-tetrahydro-10H-1,2-oxazino(3,2-b)(1,3)benzoxazin-10-one] | 195 ± 96
